According to US11440884B2, “Compounds, salts thereof and methods for treatment of diseases” (ACADIA PHARMACEUTICALS INC., priority 2017, dated 2022):
Where two headings read alike, the source gives them in different places.

Target: 5-HT2A receptor (Homo sapiens (Human), UniProt P28223)
Assay: Receptor Selection and Amplification (R-SAT) functional antagonist assay;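 also: Read-out is β-galactosidase marker gene activity with ONPG substrate, measured after five days of growth in 96-well plates holding the test compound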
[1] = R-SAT, transfected NIH3T3 cells, guidance: high affinity pKi≥8.4, moderate affinity pKi≥7.7

Sequence of 5-HT2A receptor (P28223 whole entry): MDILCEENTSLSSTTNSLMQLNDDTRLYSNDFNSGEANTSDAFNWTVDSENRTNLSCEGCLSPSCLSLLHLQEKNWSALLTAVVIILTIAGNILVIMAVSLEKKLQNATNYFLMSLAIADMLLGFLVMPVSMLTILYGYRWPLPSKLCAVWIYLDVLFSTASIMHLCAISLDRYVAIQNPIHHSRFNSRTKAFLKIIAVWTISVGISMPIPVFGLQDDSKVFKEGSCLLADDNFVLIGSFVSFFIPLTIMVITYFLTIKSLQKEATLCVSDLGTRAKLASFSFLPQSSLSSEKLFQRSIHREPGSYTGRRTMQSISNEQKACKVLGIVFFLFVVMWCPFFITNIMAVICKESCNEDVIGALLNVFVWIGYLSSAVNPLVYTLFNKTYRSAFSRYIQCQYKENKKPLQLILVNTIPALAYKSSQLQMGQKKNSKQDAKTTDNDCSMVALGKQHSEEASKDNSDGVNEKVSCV
Method: Receptor Selection and Amplification (R-SAT) Assays. […] For large-scale transfections, cells were transfected for 12-16 h, then trypsinized and frozen in DMSO. Frozen cells were later thawed, plated at 10,000-40,000 cells per well of a 96 well plate that contained a compound according to Formula (I). […] With both methods, cells were then grown in a humidified atmosphere with 5% ambient CO2 for five days. Media was then removed from the plates and marker gene activity was measured by the addition of the b-galactosidase substrate o-nitrophenyl b-D-galactopyranoside (ONPG, in PBS with 5% NP-40). […] All data were analyzed using the computer program XLFit (IDBSm).

| 5-HT2a pKi [1] | SMILES | also measured |
| --- | --- | --- |
| 9.1 | CC(C)Oc1ccc(COC(=O)N(Cc2c(F)cc(Cl)cc2F)C2CCN(C)CC2)cc1 [Compound 74] | – |
| – | CC(C)Oc1ccc(COC(=O)N(Cc2ccc(C(F)(F)F)cc2Cl)C2CCN(C)CC2)cc1.O=C(O)C(F)(F)F [Compound 78] | 5-HT2a pKi: 7.6 |
| 7.8 | CC(C)Oc1ccc(COC(=O)N(Cc2cc(F)c(F)cc2F)C2CCN(C)CC2)cc1 [Compound 80] | – |
| – | CC(C)Oc1ccc(COC(=O)N(Cc2ccc(F)cc2C(F)(F)F)C2CCN(C)CC2)cc1 [Compound 81] | Ki: 2000 µM |
| 7.8 | CC(C)COc1ccc(COC(=O)N(Cc2ccc(F)cc2O)C2CCN(C)CC2)cc1 [Compound 82, [4-(2-methylpropoxy)phenyl]methyl N-[(4-fluoro-2-hydroxyphenyl)methyl]-N-(1-methylpiperidin-4-yl)carbamate] | – |

| SMILES | 5-HT2a pKi [1] | also measured |
| --- | --- | --- |
| COc1cc(CN(C(=O)OCc2ccc(OC(C)C)cc2)C2CCN(C)CC2)ccc1Cl.O=C(O)C(F)(F)F [Compound 75] | 6.8 | – |
| CC(C)Oc1ccc(COC(=O)N(Cc2ccc(C(F)(F)F)cc2F)C2CCN(C)CC2)cc1.O=C(O)C(F)(F)F [Compound 79] | 8.4 | – |
